Experiment [1] addresses T1, oxytocin receptors (Rattus norvegicus, UniProt P70536).
T1 construct: The uteri are dissected out, cleaned of fat and connective tissues; from tissue; host or cells: uterus of DES-treated female Sprague-Dawley rats
T1 sequence (P70536 1-388): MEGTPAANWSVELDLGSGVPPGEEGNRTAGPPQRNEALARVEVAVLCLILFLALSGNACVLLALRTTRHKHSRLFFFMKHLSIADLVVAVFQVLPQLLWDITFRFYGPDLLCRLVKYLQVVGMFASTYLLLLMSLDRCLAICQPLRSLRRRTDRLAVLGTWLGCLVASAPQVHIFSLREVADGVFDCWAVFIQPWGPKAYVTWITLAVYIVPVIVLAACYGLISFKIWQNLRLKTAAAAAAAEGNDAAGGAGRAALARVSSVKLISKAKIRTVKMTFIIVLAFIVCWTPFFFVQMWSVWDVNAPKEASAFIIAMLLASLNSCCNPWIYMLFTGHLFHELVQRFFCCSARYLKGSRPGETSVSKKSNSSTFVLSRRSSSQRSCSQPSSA
Kind of experiment: Oxytocin Receptor Binding. The conditions noted are these: for inhibition at 10 µM: [3H]oxytocin. In a few lines:
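IC50 is the concentration displacing 50% of 1.0 nM [3H]OT, incubated 60 min at 22 °C in pH 7.4 Tris/MgCl2 buffer plus protease inhibitors, then filtered. Receptor source: uterine membranes from rats given 0.3 mg/kg DES i.m. 18 h earlier. 1.0 uM cold OT defined non-specific binding.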

Experiment [2] deals with Vasopressin V1. Kind of experiment: Vasopressin V1 Antagonist Activity in Conscious Rats (vasopressin vasopressor response). Format: in vivo, rat. The settings on record: 30 mg/kg i.v. In a few lines:
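Conscious rats are restrained supine, and under local 2% procaine a PE 10/20 cannula is passed through the ventral caudal tail artery into the lower abdominal aorta. The caudal vein is cannulated for intravenous dosing. Blood pressure is recorded with a Statham P23Db transducer, and vasopressin injections are repeated after compound dosing. Percent antagonism is calculated against the pre-drug vasopressor response taken as 100%.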

The target in experiment [3] is T2, Rat Hepatic V1 Receptors (Rattus norvegicus, UniProt P30560).
T2 construct: Rat liver plasma membranes expressing the vasopressin V1 receptor subtypes; from tissue; host or cells: rat liver plasma membranes
Kind of experiment: Binding Assay to Rat Hepatic V1 Receptors.

Molecules are shown by their SMILES.

T2 sequence (P30560 whole entry): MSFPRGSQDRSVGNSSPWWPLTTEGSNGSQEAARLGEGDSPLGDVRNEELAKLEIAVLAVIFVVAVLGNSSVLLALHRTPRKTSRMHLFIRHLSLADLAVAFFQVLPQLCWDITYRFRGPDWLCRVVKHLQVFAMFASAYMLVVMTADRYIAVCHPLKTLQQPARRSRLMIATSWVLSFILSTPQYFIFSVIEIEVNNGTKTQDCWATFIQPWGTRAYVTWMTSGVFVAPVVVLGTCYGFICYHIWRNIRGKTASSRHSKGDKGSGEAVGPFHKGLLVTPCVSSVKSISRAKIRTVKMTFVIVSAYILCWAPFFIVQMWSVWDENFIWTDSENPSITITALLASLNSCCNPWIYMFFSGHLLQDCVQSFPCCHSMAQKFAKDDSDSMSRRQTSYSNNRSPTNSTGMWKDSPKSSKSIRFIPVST

As to `Cc1ccccc1C(=O)Nc1ccc(C(=O)N2Cc3ccc(C(=O)C(F)(F)F)n3Cc3ccccc32)c(Cl)c1` [Example 595, N-[4-[[3-(Trifluoroacetyl)-5H-pyrrolo[2,1-c][1,4]benzodiazepin-10(11H)-yl]carbonyl]-3-chlorophenyl]-2-methylbenzamide], the inhibition (in general, the drop in the measured response relative to a control, in per cent) at 10 µM in experiment [1] worked out at 49%. Moreover, in experiment [2], the “Max. % Inhibition” value is listed as 44% and the “Time (of max. % inhibition)” value came out at 90 min. Also, in experiment [3] (2 h, 10 μM, rat), the inhibition at 10 µM worked out at 57%.

With `O=C(Nc1ccc(C(=O)N2Cc3cccn3Cc3ccccc32)cc1)c1cc(Cl)cc(Cl)c1Cl` [Example 599, N-[4-(5H-Pyrrolo[2,1-c][1,4]benzodiazepin-10(11H)-ylcarbonyl)phenyl]-2,3,5-trichlorobenzamide], the IC50 (commonly the concentration that inhibits the measured activity by half) in experiment [1] (1.0 nM [3H]oxytocin) is 350 nM; in experiment [3] (rat liver membranes, read-out: V1 IC50), 46 nM. The compound further registered an inhibition at 10 µM in experiment [1] of 92%. Also, the “Max. % Inhibition” value in experiment [2] is 86%. Also, the “Time (of max. % inhibition)” value in experiment [2] stood at 90 min.
